By solubility is commonly meant how much of the substance goes into solution per volume. The melting point is the temperature, or range, at which the solid turns liquid.

Converted amounts (≈) assume the structure as drawn.

The target of the first data set is histone deacetylase (HDAC), HeLa nuclear extracts. Briefly: In vitro assay for inhibition of histone deacetylase. It is filed as biochemical. Also on record: key: pIC50 = negative log of IC50. The settings on record: [3H]acetylated histone H4 peptide substrate. On the procedure:
The in vitro assay for inhibition of histone deacetylase (see example C.1) measures the inhibition of HDAC enzymatic activity obtained with the compounds of formula (I).
HeLa nuclear extracts (supplier: Biomol) were incubated at 60 μg/ml with 2×10^−8 M of radiolabeled peptide substrate. As a substrate for measuring HDAC activity a synthetic peptide, i.e. the amino acids 14-21 of histone H4, was used. The substrate is biotinylated at the NH2-terminal part with a 6-aminohexanoic acid spacer, and is protected at the COOH-terminal part by an amide group and specifically [^3H]acetylated at lysine 16. The substrate, biotin-(6-aminohexanoic)Gly-Ala-([^3H]-acetyl-Lys-Arg-His-Arg-Lys-Val-NH2), was added in a buffer containing 25 mM Hepes, 1 M sucrose, 0.1 mg/ml BSA and 0.01% Triton X-100 at pH 7.4. After 30 min the deacetylation reaction was terminated by the addition of HCl and acetic acid. (final concentration 0.035 mM and 3.8 mM respectively). After stopping the reaction, the free ^3H-acetate was extracted with ethylacetate. After mixing and centrifugation, the radioactivity in an aliquot of the upper (organic) phase was counted in a β-counter.
For each experiment, controls (containing HeLa nuclear extract and DMSO without compound), a blank incubation (containing DMSO but no HeLa nuclear extract or compound) and samples (containing compound dissolved in DMSO and HeLa nuclear extract) were run in parallel. In first instance, compounds were tested at a concentration of 10^−5M. […] In each test the blank value was substracted from both the control and the sample values. The control sample represented 100% of substrate deactylation. For each sample the radioactivity was expressed as a percentage of the mean value of the controls. […] Herein the effects of test compounds are expressed as pIC50 (the negative log value of the IC50-value).
For the molecule `O=C(NO)c1ccc(NC2CCN(S(=O)(=O)c3ccc4ccccc4c3)CC2)nc1` [Co. No. 1], the “Enzyme activity pIC50” value stood at 7.676.
Same read-out and setting: in the case of `O=C(NO)c1ccc(NC2CCCN(S(=O)(=O)c3ccc(-c4ccccc4)cc3)CC2)nc1` (stereo not shown) [Co. No. 2] it was 6.871; in that of `O=C(NO)c1cnc(NC2CCCN(S(=O)(=O)c3ccc4ccccc4c3)CC2)nc1` (stereo not shown) [Co. No. 3], 7.306.
Still for that read-out and setting: in the case of `O=C(NO)c1cnc(NC2CCCN(S(=O)(=O)c3ccc(-c4ccccc4)cc3)CC2)nc1` (stereo not shown) [Co. No. 4] it was 7.314.
`O=C(NO)c1cnc(NC2CCN(S(=O)(=O)c3ccc4ccccc4c3)CC2)nc1` [Co. No. 5]: the “Enzyme activity pIC50” value is listed as 7.525.
Same read-out and setting: the result for `O=C(NO)c1ccc(NC2CCCN(S(=O)(=O)c3ccc4c(c3)CCCC4)CC2)nc1` (stereo not shown) [Co. No. 6] reads 6.853.
Same read-out and setting: the result for `O=C(NO)c1cnc(NCC2CCN(S(=O)(=O)c3ccc4ccccc4c3)CC2)nc1` [Co. No. 7] reads 7.408; that for `O=C(NO)c1cnc(NCC2CCCN(S(=O)(=O)c3ccc4ccccc4c3)C2)nc1` (stereo not shown) [Co. No. 8], 7.23.
On the same count and under the same terms, the result for `O=C(NO)c1cnc(NCC2CN(S(=O)(=O)c3ccc4ccccc4c3)CCO2)nc1` (stereo not shown) [Co. No. 9] reads 7.161; that for `O=C(NO)c1cnc(NC2CCN(S(=O)(=O)c3ccc(-c4ccccc4)cc3)CC2)nc1` [compound 14], 7.077.

Another data set deals with human A2780 ovarian carcinoma cells. The data set is described as follows: Determination of antiproliferative activity on A2780 cells (MTT). It is filed as cell-based. As to conditions: Homo sapiens, 96 h, four days of incubation, read-out: Cellular activity pIC50 (converted). How it is done: Cellular activity of the compounds of formula (I) was determined on A2780 tumour cells using a colorimetric assay for cell toxicity or survival (Mosmann Tim, Journal of Immunological Methods 65: 55-63, 1983)(see example C.2).
All compounds tested were dissolved in DMSO and further dilutions were made in culture medium. Final DMSO concentrations never exceeded 0.1% (v/v) in cell proliferation assays. Controls contained A2780 cells and DMSO without compound and blanks contained DMSO but no cells. MTT was dissolved at 5 mg/ml in PBS. A glycine buffer comprised of 0.1 M glycine and 0.1 M NaCl buffered to pH 10.5 with NaOH (1 N) was prepared (all reagents were from Merck).
The human A2780 ovarian carcinoma cells (a kind gift from Dr. T. C. Hamilton [Fox Chase Cancer Centre, Pennsylvania, USA]) were cultured in RPMI 1640 medium supplemented with 2 mM L-glutamine, 50 μg/ml gentamicin and 10% fetal calf serum. Cells were routinely kept as monolayer cultures at 37° C. in a humidified 5% CO2 atmosphere. Cells were passaged once a week using a trypsin/EDTA solution at a split ratio of 1:40. All media and supplements were obtained from Life Technologies. Cells were free of mycoplasma contamination as determined using the Gen-Probe Mycoplasma Tissue Culture kit (supplier: BioMérieux).
Cells were seeded in NUNC™ 96-well culture plates (Supplier: Life Technologies) and allowed to adhere to the plastic overnight. Densities used for plating were 1500 cells per well in a total volume of 200 μl medium. After cell adhesion to the plates, medium was changed and drugs and/or solvents were added to a final volume of 200 μl. Following four days of incubation, medium was replaced by 200 μl fresh medium and cell density and viability was assessed using an MTT-based assay. To each well, 25 μl MTT solution was added and the cells were further incubated for 2 hours at 37° C. The medium was then carefully aspirated and the blue MTT-formazan product was solubilized by addition of 25 μl glycine buffer followed by 100 μl of DMSO. […] Within an experiment, the results for each experimental condition are the mean of 3 replicate wells. For initial screening purposes, compounds were tested at a single fixed concentration of 10^−6 M. For active compounds, the experiments were repeated to establish full concentration-response curves. For each experiment, controls (containing no drug) and a blank incubation (containing no cells or drugs) were run in parallel. The blank value was subtracted from all control and sample values. For each sample, the mean value for cell growth (in absorbance units) was expressed as a percentage of the mean value for cell growth of the control. […] Herein the effects of test compounds are expressed as pIC50 (the negative log value of the IC50-value).
As to `O=C(NO)c1ccc(NC2CCN(S(=O)(=O)c3ccc4ccccc4c3)CC2)nc1` [Co. No. 1], the IC50 is 2.45 µM.
Still for that read-out and setting: the result for `O=C(NO)c1ccc(NC2CCCN(S(=O)(=O)c3ccc(-c4ccccc4)cc3)CC2)nc1` (stereo not shown) [Co. No. 2] reads 1.57 µM; that for `O=C(NO)c1cnc(NC2CCCN(S(=O)(=O)c3ccc4ccccc4c3)CC2)nc1` (stereo not shown) [Co. No. 3], 3.12 µM.
The same measure, in the same setting: the result for `O=C(NO)c1cnc(NC2CCCN(S(=O)(=O)c3ccc(-c4ccccc4)cc3)CC2)nc1` (stereo not shown) [Co. No. 4] reads 1.45 µM.
The same measure, in the same setting: in the case of `O=C(NO)c1cnc(NC2CCN(S(=O)(=O)c3ccc4ccccc4c3)CC2)nc1` [Co. No. 5] it was 3.37 µM.
`O=C(NO)c1ccc(NC2CCCN(S(=O)(=O)c3ccc4c(c3)CCCC4)CC2)nc1` (stereo not shown) [Co. No. 6]: the IC50 is 4.52 µM.
The same measure, in the same setting: in the case of `O=C(NO)c1cnc(NCC2CCN(S(=O)(=O)c3ccc4ccccc4c3)CC2)nc1` [Co. No. 7] it was 7.78 µM.
The same measure, in the same setting: in the case of `O=C(NO)c1cnc(NCC2CCCN(S(=O)(=O)c3ccc4ccccc4c3)C2)nc1` (stereo not shown) [Co. No. 8] it was 1.9 µM; in that of `O=C(NO)c1cnc(NCC2CN(S(=O)(=O)c3ccc4ccccc4c3)CCO2)nc1` (stereo not shown) [Co. No. 9], 2.15 µM.

The data set is the same for the next values; noted with them: four days of incubation.
Turning to `O=C(NO)c1cnc(NC2CCN(S(=O)(=O)c3ccc(-c4ccccc4)cc3)CC2)nc1` [compound 14], the “Cellular activity pIC50” value was 5.201.

Test system in another data set: not listed separately
Briefly: Kinetic solubility in aqueous media. The settings on record: aqueous buffer, kinetic from dmso stock; phosphate citrate buffer pH 7.4, turbidity by nephelometer; read-out: Solubility Score. Type of data set: physicochemical. How it is done:
Kinetic solubility in aqueous media measures the ability of a compound to stay in aqueous solution upon dilution (see example C.3).
DMSO-stock solutions are diluted with a single aqueous buffer solvent in 3 consecutive steps. For every dilution turbidity is measured with a nephelometer.
In the first dilution step, 10 μl of a concentrated stock-solution of the active compound, solubilized in DMSO (5 mM), was added to 100 μl phosphate citrate buffer pH 7.4 and mixed. In the second dilution step, an aliquot (20 μl) of the first dilution step was further dispensed in 100 μl phosphate citrate buffer pH 7.4 and mixed. Finally, in the third dilution step, a sample (20 μl) of the second dilution step was further diluted in 100 μl phosphate citrate buffer pH 7.4 and mixed. All dilutions were performed in 96-well plates. Immediately after the last dilution step the turbidity of the three consecutive dilution steps were measured with a nephelometer. Dilution was done in triplicate for each compound to exclude occasional errors. Based on the turbidity measurements a ranking is performed into 3 classes. Compounds with high solubility obtained a score of 3 and for this compounds the first dilution is clear. Compounds with medium solubility obtained a score of 2. For these compounds the first dilution is unclear and the second dilution is clear. […] The solubility of 14 compounds was measured.
With `O=C(NO)c1ccc(NC2CCN(S(=O)(=O)c3ccc4ccccc4c3)CC2)nc1` [Co. No. 1], the solubility is greater than 454 µM.
For `O=C(NO)c1ccc(NC2CCCN(S(=O)(=O)c3ccc(-c4ccccc4)cc3)CC2)nc1` (stereo not shown) [Co. No. 2], the solubility is less than 75.8 µM.
The same measure, in the same setting: in the case of `O=C(NO)c1cnc(NC2CCCN(S(=O)(=O)c3ccc4ccccc4c3)CC2)nc1` (stereo not shown) [Co. No. 3] it was 75.8 to 454 µM (≈ 33.5 to 201 µg/mL); in that of `O=C(NO)c1cnc(NC2CCCN(S(=O)(=O)c3ccc(-c4ccccc4)cc3)CC2)nc1` (stereo not shown) [Co. No. 4], less than 75.8 µM.
As to `O=C(NO)c1cnc(NC2CCN(S(=O)(=O)c3ccc4ccccc4c3)CC2)nc1` [Co. No. 5], the solubility is greater than 454 µM.
As for `O=C(NO)c1ccc(NC2CCCN(S(=O)(=O)c3ccc4c(c3)CCCC4)CC2)nc1` (stereo not shown) [Co. No. 6], the solubility lay within 75.8 to 454 µM (≈ 33.7 to 202 µg/mL).
Same read-out and setting: the result for `O=C(NO)c1cnc(NCC2CCN(S(=O)(=O)c3ccc4ccccc4c3)CC2)nc1` [Co. No. 7] reads less than 75.8 µM; that for `O=C(NO)c1cnc(NCC2CCCN(S(=O)(=O)c3ccc4ccccc4c3)C2)nc1` (stereo not shown) [Co. No. 8], less than 75.8 µM.
Still for that read-out and setting: the result for `O=C(NO)c1cnc(NCC2CN(S(=O)(=O)c3ccc4ccccc4c3)CCO2)nc1` (stereo not shown) [Co. No. 9] reads greater than 454 µM.

Test system in the next data set: not given
Experiment: not given
Conditions: not given
On to `O=C(NO)c1ccc(NC2CCCN(S(=O)(=O)c3ccc(-c4ccccc4)cc3)CC2)nc1` (stereo not shown) (hydrate or solvate) [Co. No. 2], for which the melting point came to 115 °C.
Still for that read-out and setting: in the case of `O=C(NO)c1ccc(NC2CCCN(S(=O)(=O)c3ccc4c(c3)CCCC4)CC2)nc1` (stereo not shown) (hydrate or solvate) [Co. No. 6] it was 115 °C; in that of `O=C(NO)c1ccc(NC2CCN(S(=O)(=O)c3ccc4ccccc4c3)CC2)nc1` [Co. No. 1], 160 °C.
The same measure, in the same setting: the result for `O=C(NO)c1cnc(NC2CCCN(S(=O)(=O)c3ccc4ccccc4c3)CC2)nc1` (stereo not shown) [Co. No. 3] reads 140 °C; that for `O=C(NO)c1cnc(NC2CCCN(S(=O)(=O)c3ccc(-c4ccccc4)cc3)CC2)nc1` (stereo not shown) [Co. No. 4], 227 °C; that for `O=C(NO)c1cnc(NC2CCN(S(=O)(=O)c3ccc4ccccc4c3)CC2)nc1` [Co. No. 5], 256 °C.
In the case of `O=C(NO)c1cnc(NCC2CCN(S(=O)(=O)c3ccc4ccccc4c3)CC2)nc1` [Co. No. 7], the melting point worked out at 240 °C.
The same measure, in the same setting: in the case of `O=C(NO)c1cnc(NCC2CCCN(S(=O)(=O)c3ccc4ccccc4c3)C2)nc1` (stereo not shown) [Co. No. 8] it was 137 °C.
Still for that read-out and setting: in the case of `O=C(NO)c1cnc(NCC2CN(S(=O)(=O)c3ccc4ccccc4c3)CCO2)nc1` (stereo not shown) [Co. No. 9] it was 226 °C.

Test system in another data set: not given
Experiment: not given
As to conditions: after 15 min of incubation with active microsomes (1 mg/ml), compound 5 μM.
`CCCO` [propanol]: the “% metabolism” value is listed as 25%.

The data set is the same for the next values; noted with them: human, 15 min, 5 μM.
Consider `COc1cc(N)c(Cl)cc1C(=O)NC1CCN(CCCOc2ccc(F)cc2)CC1OC` (stereo not shown) [Cisapride], for which the “% metabolism” value was found to be 45%.

The values are drawn from patent US8916554B2, “Amino-derivatives as novel inhibitors of histone deacetylase” (Janssen Pharmaceutica N.V., priority 2002, dated 2014).
